Test results: patent US11262362B2, “2-hydroxyglutarate as a biomarker for chronic hypoxia” (MEMORIAL SLOAN KETTERING CANCER CENTER, priority 2011, dated 2022)

System: SF188 cells
Assay: Viability of glutamine-starved SF188 cells in hypoxia (trypan blue dye exclusion)
Assay type: cell-based, human
Details: 0.5% O2, glutamine-deficient medium supplemented with 7 mM dimethyl α-ketoglutarate, 48 h
Protocol: In FIG. 2(A), SF188 cells were cultured for 24 h in complete medium equilibrated with either 21% O2 (Normoxia) or 0.5% O2 (Hypoxia). Culture medium was then removed from cells and analyzed for glutamine levels which were compared to the glutamine levels in fresh medium. Data are the mean±SEM of 3 independent experiments. […] Cells were cultured in complete medium equilibrated with 0.5% O2 for 24 h, followed by an additional 48 h at 0.5% O2 in either complete medium (+Gln), glutamine-deficient medium (−Gln), or glutamine-deficient medium supplemented with 7 mM dimethyl α-ketoglutarate (−Gln+αKG). All medium was pre-conditioned in 0.5% O2. Cell viability was determined by trypan blue dye exclusion. Data are the mean and range from 2 independent experiments. FIG. 2(C) depicts a model of the pathways for cit+4 and cit+5 production from [U-^13C]glutamine (glutamine+5). […] Cells were cultured for 24 h as in (A), followed by 4 h of culture in glutamine-deficient medium supplemented with 4 mM [U-^13C]glutamine. ^13C enrichment in cellular citrate was quantitated with GC-MS. […]
SF188 and RCC4 cells were cultured in Dulbecco's Modified Eagle's Medium (DMEM; Invitrogen 11965), 10% fetal bovine serum (FBS; Gemini Biosystems), 100 units/ml Penicillin, 100 ug/ml Streptomycin, 25 mM glucose, and 6 mM L-glutamine. […] Viability was determined by trypan blue exclusion. […]

COC(=O)CCC(=O)C(=O)OC [dimethyl α-ketoglutarate]
cell viability upon glutamine withdrawal: rescued the defect in cell viability
